Toxic doses and inconclusive results are not listed.
System: CD2F1 mice, L1210 leukemia ip, survival T/C
Test: NCI In Vivo Anticancer Drug Screen. Data for tumor model L1210 Leukemia (intraperitoneal) in CD2F1 (CDF1) mice
Conditions: endpoint: mean survival time, higher = longer survival
Outline: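 Vehicle-treated tumor-bearing mice served as controls (C) for compound-treated mice (T). Reported figure is T divided by C.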

[1] = dose: 100.0 mg/kg/injection, schedule: Q04DX003 (ip), vehicle: saline with Tween-80
[2] = dose: 200.0 mg/kg/injection, schedule: Q04DX003 (ip), vehicle: saline with Tween-80
[3] = dose: 400.0 mg/kg/injection, schedule: Q04DX003 (ip), vehicle: saline with Tween-80
[4] = dose: 100.0 mg/kg/injection, schedule: Q01DX001 (ip), vehicle: saline
[5] = dose: 200.0 mg/kg/injection, schedule: Q01DX001 (ip), vehicle: saline
[6] = dose: 400.0 mg/kg/injection, schedule: Q01DX001 (ip), vehicle: saline
[7] = dose: 50.0 mg/kg/injection, schedule: Q01DX009 (ip), vehicle: saline with Tween-80
[8] = dose: 100.0 mg/kg/injection, schedule: Q01DX009 (ip), vehicle: saline with Tween-80
[9] = dose: 200.0 mg/kg/injection, schedule: Q01DX009 (ip), vehicle: saline with Tween-80
[10] = dose: 400.0 mg/kg/injection, schedule: Q01DX009 (ip), vehicle: saline with Tween-80

## Nc1cccc2scnc12 (tested in a mixture with another compound)
[1]
  T/C: 104 % of control
[2]
  T/C: 98 % of control
[3]
  T/C: 95 % of control

## O=C(/C=C/c1ccco1)c1cccnc1
[4]
  T/C: 94 % of control
[5]
  T/C: 100 % of control
[6]
  T/C: 100 % of control

## NC(=O)c1ccc[n+](CCc2c[nH]c3ccccc23)c1
dose: 18.75 mg/kg/injection, schedule: Q01DX009 (ip), vehicle: saline with Tween-80
  T/C: 101 % of control
dose: 37.5 mg/kg/injection, schedule: Q01DX009 (ip), vehicle: saline with Tween-80
  T/C: 92 % of control
dose: 75.0 mg/kg/injection, schedule: Q01DX009 (ip), vehicle: saline with Tween-80
  T/C: 103 % of control
dose: 75.0 mg/kg/injection, schedule: Q04DX003 (ip), vehicle: saline with Tween-80
  T/C: 88 % of control

## CCSC1CCS(=O)(=O)C1 (stereo not given)
[7]
  T/C: 93 % of control
[8]
  T/C: 93 % of control
[9]
  T/C: 97 % of control

## CCCCCCCCCCCc1n(Cc2ccccc2)c2ccccc2[n+]1C
dose: 0.25 mg/kg/injection, schedule: Q01DX009 (ip), vehicle: saline
  T/C: 117 % of control
dose: 0.25 mg/kg/injection, schedule: Q04DX003 (ip), vehicle: saline
  T/C: 102 % of control
dose: 0.5 mg/kg/injection, schedule: Q01DX009 (ip), vehicle: saline
  T/C: 110 % of control
dose: 0.5 mg/kg/injection, schedule: Q04DX003 (ip), vehicle: saline
  T/C: 104 % of control
dose: 1.0 mg/kg/injection, schedule: Q01DX009 (ip), vehicle: saline
  T/C: 121 % of control
dose: 1.0 mg/kg/injection, schedule: Q04DX003 (ip), vehicle: saline
  T/C: 106 % of control

## CC(=O)OC1CSC(C(C)(C)C)SC1 (stereo not given)
dose: 12.5 mg/kg/injection, schedule: Q04DX002 (ip), vehicle: saline with Tween-80
  T/C: 102 % of control
dose: 25.0 mg/kg/injection, schedule: Q04DX002 (ip), vehicle: saline with Tween-80
  T/C: 102 % of control
dose: 50.0 mg/kg/injection, schedule: Q04DX002 (ip), vehicle: saline with Tween-80
  T/C: 108 % of control

## OCCNC(=S)Nc1ccccc1
dose: 7.5 mg/kg/injection, schedule: Q01DX009 (ip), vehicle: saline
  T/C: 97 % of control
dose: 15.0 mg/kg/injection, schedule: Q01DX009 (ip), vehicle: saline
  T/C: 95 % of control
dose: 25.0 mg/kg/injection, schedule: Q04DX003 (ip), vehicle: saline with Tween-80
  T/C: 98 % of control
dose: 30.0 mg/kg/injection, schedule: Q01DX009 (ip), vehicle: saline
  T/C: 89 % of control
dose: 50.0 mg/kg/injection, schedule: Q04DX003 (ip), vehicle: saline with Tween-80
  T/C: 101 % of control
[1]
  T/C: 100 % of control

## O=C1CCCCCC2CC12 (stereo not given)
[8]
  T/C: 94 % of control
[9]
  T/C: 102 % of control
[10]
  T/C: 94 % of control

## C/C(=C\c1ccccc1)C(=O)c1ccccc1
dose: 100.0 mg/kg/injection, schedule: Q04DX003 (ip), vehicle: Klucel (hydroxypropylcellulose) (HPC)
  T/C: 106 % of control
dose: 200.0 mg/kg/injection, schedule: Q04DX003 (ip), vehicle: Klucel (hydroxypropylcellulose) (HPC)
  T/C: 101 % of control
dose: 400.0 mg/kg/injection, schedule: Q04DX003 (ip), vehicle: Klucel (hydroxypropylcellulose) (HPC)
  T/C: 98 % of control

## CC1CCCN(CCSSCCN2CCCC(C)C2)C1 (stereo not given)
dose: 12.5 mg/kg/injection, schedule: Q01DX009 (ip), vehicle: saline with Tween-80
  T/C: 104 % of control
dose: 12.5 mg/kg/injection, schedule: Q04DX003 (ip), vehicle: saline sonified
  T/C: 97 % of control
dose: 25.0 mg/kg/injection, schedule: Q01DX009 (ip), vehicle: saline with Tween-80
  T/C: 96 % of control
dose: 25.0 mg/kg/injection, schedule: Q04DX003 (ip), vehicle: saline sonified
  T/C: 98 % of control
[7]
  T/C: 95 % of control
dose: 50.0 mg/kg/injection, schedule: Q04DX003 (ip), vehicle: saline sonified
  T/C: 103 % of control

## Cn1c(=O)c2[nH]c(-c3ccc(Cl)cc3)nc2n(C)c1=O
dose: 12.5 mg/kg/injection, schedule: Q01DX005 (ip), vehicle: other
  T/C: 89 % of control
dose: 25.0 mg/kg/injection, schedule: Q01DX005 (ip), vehicle: other
  T/C: 89 % of control
dose: 50.0 mg/kg/injection, schedule: Q01DX005 (ip), vehicle: other
  T/C: 93 % of control
dose: 100.0 mg/kg/injection, schedule: Q01DX005 (ip), vehicle: other
  T/C: 89 % of control
dose: 200.0 mg/kg/injection, schedule: Q01DX005 (ip), vehicle: other
  T/C: 95 % of control

## CC(=O)Nc1cc(S(=O)(=O)O)cc(N)c1O
dose: 100.0 mg/kg/injection, schedule: Q01DX001 (ip), vehicle: Klucel (hydroxypropylcellulose) (HPC)
  T/C: 114 % of control
dose: 200.0 mg/kg/injection, schedule: Q01DX001 (ip), vehicle: Klucel (hydroxypropylcellulose) (HPC)
  T/C: 103 % of control
dose: 400.0 mg/kg/injection, schedule: Q01DX001 (ip), vehicle: Klucel (hydroxypropylcellulose) (HPC)
  T/C: 106 % of control

## Nc1ccc(N=Nc2ccccc2)c(N)n1
[8]
  T/C: 98 % of control
[9]
  T/C: 98 % of control
[10]
  T/C: 100 % of control

## CCCCCCCCCCCCCCCCCC(=O)OC1C(CO)OC2C1Oc1nc(=N)ccn12 (stereo not given)
dose: 12.5 mg/kg/injection, schedule: Q01DX009 (ip), vehicle: other
  T/C: 167 % of control
dose: 25.0 mg/kg/injection, schedule: Q01DX009 (ip), vehicle: other
  T/C: 229 % of control
dose: 50.0 mg/kg/injection, schedule: Q01DX009 (ip), vehicle: other
  T/C: 301 % of control
dose: 100.0 mg/kg/injection, schedule: Q01DX009 (ip), vehicle: other
  T/C: 280 % of control
dose: 200.0 mg/kg/injection, schedule: Q01DX009 (ip), vehicle: other
  T/C: 96 % of control

## CC(=O)O[C@H]1CC[C@@]2(C)[C@@H](CC[C@@H]3[C@@H]2CC(=O)[C@]2(C)[C@@H]4[C@H](C[C@@H]32)O[C@]2(CC[C@@H](C)CO2)[C@H]4C)C1
[4]
  T/C: 96 % of control
[5]
  T/C: 101 % of control
[6]
  T/C: 98 % of control

## CC12C=C(C(=O)c3ccccc3)C(CC1)C2(C)C (stereo not given)
[8]
  T/C: 95 % of control
[1]
  T/C: 96 % of control
[9]
  T/C: 97 % of control
[2]
  T/C: 93 % of control
[10]
  T/C: 97 % of control
[3]
  T/C: 91 % of control

## Cc1cc(C)c(N)c(Br)c1C
[8]
  T/C: 102 % of control
[1]
  T/C: 103 % of control
[9]
  T/C: 97 % of control
[2]
  T/C: 100 % of control
[10]
  T/C: 104 % of control
[3]
  T/C: 101 % of control

## CC(=O)Nc1ccc(S(=O)(=O)N=C(N)N)cc1
dose: 75.0 mg/kg/injection, schedule: Q04DX002 (ip), vehicle: saline
  T/C: 114 % of control
dose: 150.0 mg/kg/injection, schedule: Q04DX002 (ip), vehicle: saline
  T/C: 100 % of control
dose: 300.0 mg/kg/injection, schedule: Q04DX002 (ip), vehicle: saline
  T/C: 91 % of control

## CCN1/C(=C/c2ccc3ccccc3[n+]2CC)C=Cc2ccccc21
dose: 0.25 mg/kg/injection, schedule: Q01DX001 (ip), vehicle: other
  T/C: 95 % of control
dose: 0.5 mg/kg/injection, schedule: Q01DX001 (ip), vehicle: other
  T/C: 97 % of control
dose: 1.0 mg/kg/injection, schedule: Q01DX001 (ip), vehicle: other
  T/C: 95 % of control

## Cc1ccc2ccccc2[n+]1[O-]
dose: 100.0 mg/kg/injection, schedule: Q04DX002 (ip), vehicle: saline with Tween-80
  T/C: 111 % of control

## CC1(C)N=C(N)N=C(N)N1c1cccc(CCCCc2ccc(Cl)c(S(=O)(=O)F)c2)c1
dose: 1.8 mg/kg/injection, schedule: Q01DX009 (ip), vehicle: saline
  T/C: 98 % of control
dose: 3.5 mg/kg/injection, schedule: Q01DX009 (ip), vehicle: saline
  T/C: 93 % of control
dose: 7.0 mg/kg/injection, schedule: Q01DX009 (ip), vehicle: saline
  T/C: 91 % of control
dose: 14.0 mg/kg/injection, schedule: Q01DX009 (ip), vehicle: saline
  T/C: 89 % of control
dose: 28.0 mg/kg/injection, schedule: Q01DX009 (ip), vehicle: saline
  T/C: 104 % of control
dose: 200.0 mg/kg/injection, schedule: Q04DX003 (ip), vehicle: saline sonified
  T/C: 86 % of control

## CN(CC(=O)O)Cc1ccccc1
dose: 50.0 mg/kg/injection, schedule: Q04DX003 (ip), vehicle: saline
  T/C: 102 % of control
dose: 100.0 mg/kg/injection, schedule: Q04DX003 (ip), vehicle: saline
  T/C: 100 % of control
dose: 200.0 mg/kg/injection, schedule: Q04DX003 (ip), vehicle: saline
  T/C: 108 % of control

## Cc1c(Cl)cccc1NC(=O)CCl
[1]
  T/C: 100 % of control
[2]
  T/C: 93 % of control
[3]
  T/C: 90 % of control

Source: PubChem BioAssay AID256 (DTP/NCI, 2004)
